# How the values were obtained:
# intact yeast = experiment: Aequorin luminescence in intact yeast cells expressing mitochondrially targeted aequorin; type: cell-based, Saccharomyces cerevisiae
# Procedure: Yeast cells (strain X4003-5B; leu2, ade1, his4, met2, ura3, trp5, gal1) obtained from the Yeast Genetic Stock Center (Berkeley, Calif.) were transformed with the pYES2 plasmid, encoding the human mitochondrially targeted apoaequorin fragment, using the lithium acetate method (Sambrook et al., 1989), and INVSc1 cells were transformed with the pGK plasmid encoding the yeast mitochondrially targeted apoaequorin fragment. Selection was carried out on plates prepared with synthetic complete medium minus uracil (SC-U) (Sherman, 1991 Meths. Enzymol. 194:3). Transformed colonies were cultured in a small volume of SC-U and assayed for aequorin activity in vitro as described by Nakajima et al. (1991 Proc. Nat. Acad. Sci. USA 88:6878). Briefly, the cells were harvested by centrifugation, resuspended in lysis buffer (50 mM Tris, 2 mM EDTA, 0.5 mM PMSF, pH 8 w/NaOH), disrupted by vortexing with glass beads, and then treated with 0.1% Triton X-100 to release apoaequorin from the mitochondria. Following centrifugation, 200 μl aliquots of the supernatants were incubated with coelenterazine (2.5 μM) and 2-mercaptoethanol (2 μl), for ˜3 hr while standing on ice, to form the luminescent aequorin from its apoprotein. The coelenterazine cofactor is highly hydrophobic and readily permeates yeast cell membranes (Nakajima et al., 1991) such that reconstitution was conducted without disrupting the cells in some cases. 2-mercaptoethanol was omitted when intact cells were employed. A transformant which yielded high luminescence (named X4003-5B-AEQmito1) was selected for further characterization.
# For preculture, the transformant was inoculated into 50 ml of SC-U plus 2% glucose, and incubated in an air shaker at 180 rpm and 30° C. At 24 hr, the preculture was transferred to 500 ml of a medium containing 1% yeast extract, 2% peptone, 2% lactate, 1% galactose, 0.012% adenine, pH 5 w/NaOH, and growth was continued under conditions which were otherwise the same. […]
# Luminescence measurements were carried out in 6×50 mm culture tubes, using a total volume of 0.3 ml, and were started by injection of 5-20 μl of mitochondria or cells. […] For each value, the ratio of observed luminescence (L) to the potential luminescence remaining (Lmax) was calculated, and compared to a calibration curve which relates this ratio to the free Ca^2+ concentration. […] The total luminescence available initially (Ltotal) must be known and was determined in separate experiments, wherein a saturating Ca^2+ concentration (20 μM) is employed to discharge the aequorin completely. This value allows Lmax to be calculated at any time, as Ltotal minus the sum of luminescence that already occurred. […]
# yeast mitochondria = experiment: Membrane potential ΔΨ of isolated yeast mitochondria (safranin O); type: biochemical, Saccharomyces cerevisiae; conditions: BSA absent
# Procedure: The yeast strain W303-1A (Saccharomyces cerevisiae) was grown aerobically at 30° C. in a medium containing 2% lactate, 1% yeast extract, 2% peptone, 0.05% dextrose, and 0.01% adenine at pH 5.0, and cells were harvested during the logarithmic phase (A600=1.8−2.2). Mitochondria were isolated from spheroplasts as previously described (Jung et al., 1997 J. Biol. Chem. 272:21104), except that 0.6 M sucrose was used in the homogenization medium instead of 0.6 M mannitol (Daum et al., 1982 J. Biol. Chem. 257:13028). The resulting preparations were maintained on ice and were suspended in 0.6 M mannitol 20 mM HEPES (K+) (pH 6.8), containing 0.75 mg/ml BSA and 0.1 mM EGTA. Protein concentration was determined by a reduced volume Biuret method in which 50 μl of the final preparation were solubilized by adding an equal volume of 10% deoxycholate (Na+), with 0.4 ml of Biuret reagent added to the resulting mixture. BSA was employed as the standard.
# Unless otherwise noted, mitochondria were incubated at 1 mg protein/ml and at approximately 25° C. in a medium that contained 0.6 M mannitol, 10 mM Pi (K+), 10 mM Hepes (TEA+), pH 7.2, plus 1 mM ethanol as an oxidizable substrate. Compounds having a low solubility in water were added from stock solutions prepared in methanol or DMSO. Ca2+ transport and membrane potential were monitored using the indicating dyes antipyrylazo III (ΔA720-790) and safranin O (ΔA511-533), respectively (Akerman et al., 1976 FEBS Lett. 68:191; Scarpa et al., 1978 Biochem. 17:1378). An SLM Aminco DW-2C spectrophotometer operated in the dual wavelength mode was employed for these purposes. The same instrument, operated in split beam mode, was used to monitor mitochondrial swelling as a decrease in apparent absorbance of mitochondrial suspensions at 540 nm. Oxygen consumption data were obtained using a Clark-type electrode in parallel experiments. Atomic absorption spectroscopy was utilized to monitor the transport of other cations by yeast mitochondria. Briefly, samples were taken at appropriate times and the mitochondria were rapidly sedimented in a microcentrifuge. After carefully removing supernatants, the pellets were solubilized with 2 N percholoric acid (overnight) and centrifuged a second time. The resulting supernatants were diluted with an appropriate volume of distilled water and the concentration of the cation in question was subsequently determined.
smiles,measurement,setting,value
O=C(COCC(=O)N(C1CCCCC1)C1CCCCC1)N(C1CCCCC1)C1CCCCC1 [ETH 129],discharge of aequorin in intact cells,"intact yeast; 6.5 μM ETH 129, FIG. 19A",discharge of essentially all of the aequorin
same,rise of mitochondrial Ca2+ concentration in response to ionophore,"intact yeast; 6.5 μM ETH 129, cells oxidizing ethanol, 14 mM CaCl2, FIG. 20",6 fold
same,"effect on ΔΨ, ionophore together with Ca2+","yeast mitochondria; CaCl2 plus ionophore, FIG. 11C",sustained reduction
same,"effect on ΔΨ, agent alone",yeast mitochondria; FIG. 11B,little effect

# Source: patent publication US20020090619A1, “Methods for identifying mitochondrial divalent cation transporters” (priority 2000, published 2002)
